The C3SDB collision cross section collection
Where “and” joins values, the source holds several entries; their conditions need not be identical. Equal values may be shown once.

Conditions: instrument: DT, stepped-field

SMILES | collision cross section (N2) ([M+Na]+) | collision cross section (N2) ([M+H]+) | other results
OC[C@H]1O[C@@H]2O[C@H]3[C@H](O)[C@@H](O)[C@@H](O[C@H]4[C@H](O)[C@@H](O)[C@@H](O[C@H]5[C@H](O)[C@@H](O)[C@@H](O[C@H]6[C@H](O)[C@@H](O)[C@@H](O[C@H]7[C@H](O)[C@@H](O)[C@@H](O[C@H]8[C@H](O)[C@@H](O)[C@@H](O[C@H]9[C@H](O)[C@@H](O)[C@@H](O[C@H]1[C@H](O)[C@H]2O)O[C@@H]9CO)O[C@@H]8CO)O[C@@H]7CO)O[C@@H]6CO)O[C@@H]5CO)O[C@@H]4CO)O[C@@H]3CO [Gamma-Cyclodextrin] | 322.1 Å² | 322.6 Å² | collision cross section (N2) ([M+Cs]+): 338.2 Å²; collision cross section (N2) ([M+K]+): 324.8 Å²; collision cross section (N2) ([M+Li]+): 317.7 Å²; collision cross section (N2) ([M+Rb]+): 327.3 Å²
O=CC(OC1OC(CO)C(OC2OC(CO)C(O)C(O)C2O)C(OC2OC(CO)C(O)C(O)C2O)C1OC1OC(CO)C(O)C(O)C1O)C(OC1OC(CO)C(O)C(O)C1O)C(OC1OC(CO)C(O)C(O)C1O)C(COC1OC(CO)C(O)C(O)C1O)OC1OC(CO)C(O)C(O)C1O (centres undefined) [(Hex)9] | 340.5 Å² and 351.9 Å² |  | collision cross section (N2) ([M+H-H2O]+): 356.2 Å²
CSCC[C@H](NC(=O)[C@H](C)N)C(=O)NCC(=O)N[C@@H](Cc1ccc(O)cc1)C(=O)N[C@@H](CCCNC(=N)N)C(=O)O [AMGYR] |  | 245 Å² | 
CCC(C)[C@H](NC(=O)[C@H](CO)NC(=O)[C@H](C)NC(=O)[C@@H](N)CS)C(=O)N[C@@H](CCC(N)=O)C(=O)N[C@@H](CCCCN)C(=O)O (some centres undefined) [CASIQK] |  | 252.8 Å² | 
CCC(C)[C@H](NC(=O)[C@@H](N)CC(=O)O)C(=O)N[C@H](C(=O)NCC(=O)N[C@@H](C)C(=O)N[C@H](C(=O)N[C@@H](CC(C)C)C(=O)N[C@@H](CCCCN)C(=O)O)C(C)C)C(C)C (some centres undefined) [DIVGAVLK] |  | 291.8 Å² and 277.8 Å² | 
CCC(C)[C@H](NC(=O)[C@H](CCC(=O)O)NC(=O)[C@H](Cc1ccc(O)cc1)NC(=O)[C@H](CC(C)C)NC(=O)[C@@H](N)Cc1ccc(O)cc1)C(=O)N[C@@H](C)C(=O)N[C@@H](CCCNC(=N)N)C(=O)O (some centres undefined) [YLYEIAR] |  | 305 Å² | 

Second part, led by results:

collision cross section (N2) ([M+Na]+) | collision cross section (N2) ([M+H]+) | SMILES | other results
302.3 Å² |  | CCCCCCCCCCCCC=CC[C@@H](O)[C@H](CO[C@@H]1O[C@H](CO)[C@@H](O)C(O)C1O)NC(=O)CC=CCC=CCCCCCCCCCCCCCCCCC (some centres undefined) [GlcCer(42:3)] | 
301.3 Å² |  | CCCCC/C=C\C/C=C\C/C=C\C/C=C\CCCCCC(=O)OC[C@H](COP(=O)(O)OC[C@H](N)C(=O)O)OC(=O)CCC/C=C\C/C=C\C/C=C\C/C=C\CCCCC [PS(42:8)] | 
294.2 Å² |  | CC/C=C\C/C=C\C/C=C\C/C=C\C/C=C\C/C=C\CCC(=O)OC[C@H](COP(=O)(O)OC[C@H](N)C(=O)O)OC(=O)CCC/C=C\C/C=C\C/C=C\C/C=C\C/C=C\CC [PS(42:11)] | 
306.1 Å² |  | CCCCCCCCCCCCC=CC[C@@H](O)[C@H](CO[C@@H]1O[C@H](CO)[C@@H](O)C(O)C1O)NC(=O)CC=CCC=CCCCCCCCCCCCCCCCCCC (some centres undefined) [GlcCer(43:3)] | 
303.9 Å² |  | CCCCCCCCCCCCC=CC[C@@H](O)[C@H](COP(=O)([O-])OCC[N+](C)(C)C)NC(=O)CC=CCCCCCCCCCCCCCCCCCCC [SM(41:2)] | 
291.4 Å² |  | CCCCCCCCCCCCC=CC[C@@H](O)[C@H](CO[C@@H]1O[C@H](CO)[C@@H](O)C(O)C1O)NC(=O)CC=CCCCCCCCCCCCCCCCC (some centres undefined) [GlcCer(38:2)] | 
303.9 Å² |  | CCC=CCC=CCC=CCC=CCC=CCC=CCC(=O)OC[C@H](COP(=O)(O)OCC[N+](C)(C)C)OC(=O)CC=CCC=CCC=CCC=CCC=CCC=CCC [PC(42:12)] | 
